In patent US7863313B2, “Methods for the treatment of inflammatory diseases” (Cortical PTY LTD, priority 2003, dated 2011):
Blank lines part the entries; values can stand above or below the compound they belong to.

Legend:
[1] = tested on: LPS-IFN—induced nitrite production; test: MIF-dependent nitrite production in peritoneal macrophages (Greiss assay); assay type: cell-based, mouse; settings: for inhibition at 100 µM / inhibition at 33 µM: Mus musculus, Peritoneal macrophage, LPS 10 ng/ml + interferon-γ 10 units/ml, 24 h, read-out: % Inhibition of nitrite (± SD); for inhibition at 100 µM: compound 100 μM; for inhibition at 33 µM: compound 33 μM
Experimental: MIF is able to induce or facilitate the expression and release of a wide variety of pro-inflammatory and/or destructive molecules, including the release of macrophage nitric oxide (NO) ^(20). A compound with the ability to inhibit the cytokine or biological function of MIF might be expected to inhibit the activation of NO production by macrophages.
C57BL6/J male mice were injected intraperitoneally with 2 ml of thioglycolate. Three days later peritoneal macrophages were collected by lavaging the peritoneum with 3 ml of cold Hank's buffered saline solution. Cells from several mice were pooled, washed and re-suspended in DMEM supplemented with 5% FCS. Cells were plated in 96 well plastic tissue culture plates at 1×10^5 cells/well. Cells were treated in triplicate wells with compound or vehicle for 1 hour in a 5% CO2 incubator at 37° C. Cells were then treated with LPS (10 ng/ml) and recombinant human interferon-γ (10 units/ml) and incubated for 24 hours. After 24 hours, 50 μl of supernatant from each well was carefully removed and transferred to ELISA plates. The production of NO was measured by analysing the concentration of nitrite in culture supernatants, as measured by the Greiss assay ^(21). The results were calculated as the percentage inhibition of nitrite concentration in compound-treated cell culture supernatants, compared to that of vehicle-treated cells.

[2] = tested on: MIF-induced proliferation of mouse NIH 3T3 fibroblasts; test: MIF-induced proliferation in mouse fibroblasts (3H-thymidine incorporation); assay type: cell-based; settings: for Mean cpm (3H-thymidine incorporation): Compound (10×^10−6M) + MIF 50 ng/ml, nil 1087, MIF + vehicle 1452
Experimental: The activity of compounds was studied in a bioassay utilising MIF-induced proliferation of mouse NIH 3T3 fibroblasts. […] NIH 3T3 cells were propagated in DMEM/10% foetal calf serum (FCS). Prior to experimentation, cells were seeded at 10^4 cells/well in 96-well plates in DMEM/10% FCS for 18 hours. The media was then replaced with DMEM/0.1% FCS and the cells incubated for a further 18 hr. At time point −1 hr, culture medium was replaced with DMEM/0.1% FCS and cells were treated with a compound of the invention at a final concentration of 10 μM or vehicle. At time point zero, cells were treated with MIF at a final concentration of 50 ng/ml. At time point 6 hr the cells were pulsed with 1 µCi/well of ^3H-thymidine. At time point 24 hours, cells were harvested using a semi-automated cell harvester. The radioactivity incorporated into DNA was determined by liquid scintillation counting, with results expressed as ^3H-thymidine incorporation (cpm). Statistical significance was analysed using the Mann-Whitney test.

[3] = tested on: LPS-induced serum IL-1, IL-6, and TNF; test: Mouse endotoxic shock model (serum cytokines by ELISA); assay type: in vivo; settings: for effect on serum IL-1: 5 mg/kg; for IL-1 (pg/ml), serum: 5 mg/kg i.p. 24 h and 1 h before LPS 5 mg/kg, saline 175 ± 43, LPS plus vehicle 428 ± 168; for IL-1 (pg/ml), serum / IL-6 (ng/ml), serum / TNF (pg/ml), serum: 1.5 h after LPS; for effect on serum IL-6 / effect on serum TNF: 15 mg/kg; for IL-6 (ng/ml), serum / TNF (pg/ml), serum: 15 mg/kg i.p. 24 h and 1 h before LPS 5 mg/kg; for IL-6 (ng/ml), serum: saline 4 ± 4, LPS plus vehicle 118 ± 30; for TNF (pg/ml), serum: saline 189 ± 69, LPS plus vehicle 2022 ± 1245
Description: The activity of compounds was studied in the murine endotoxic shock model. In this model, features of shock, characterised by increased serum levels of cytokines such as IL-1, tumor necrosis factor (TNF), and interleukin 6 (IL-6), are induced by the injection of bacterial lipoloysaccharide (LPS). The in vivo production of IL-1, IL-6, and TNF in response to endotoxin has been previously shown to be dependent on MIF ^(23).
Groups of four mice were used in each experiment. Endotoxaemia was induced by intra-peritoneal injection of lipopolysaccharide (LPS) (5 mg/kg) in 300 μl saline. Mice injected with saline alone were used as a control group. Treatments were administered by intra-peritoneal injection at intervals 24 hours and 1 hour before intra-peritoneal LPS injection. Mice were treated with saline, compounds dissolved in DMSO/saline vehicle at a dose of 5-15 mg/kg body weight, or vehicle (containing matching concentrations of DMSO).
After 1.5 hours mice were humanely killed by CO2 inhalation then neck dislocation. Serum was obtained from blood obtained by cardiac puncture prior to death and measured for the concentration of cytokines including IL-1, TNF, and/or IL-6, by ELISA. Statistical significance was analysed using the Mann-Whitney test.

[4] = tested on: IL-1 induced COX-2 expression; test: Combination of MIF-antagonist with glucocorticoid: IL-1 induced fibroblast COX-2 expression; assay type: cell-based, human; settings: IL-1 + dexamethasone 1 nM alone; control 0.7400, IL-1 49.37
Experimental: S112 human dermal fibroblasts were propagated in RPMI/10% foetal calf serum (FCS). Prior to experimentation, cells were seeded at 2×10^5 cells/ml in RPMI/0.1% BSA for 18 hours. Cells were treated with compound at 1-100 μM and 30 minutes later with recombinant human IL-1 (0.1 ng/ml). After 6 hours, cells were collected and intracellular COX-2 protein determined by permeabilisation flow cytometry, as described by Sampey et al ^(18). Cells permeabilised with 0.2% saponin were sequentially labelled with a mouse anti-human COX-2 monoclonal antibody and with sheep-anti-mouse F(ab)2 fragment labelled with fluoroscein isothiocyanate. Cellular fluorescence was determined using a flow cytometer. At least 5000 events were counted for each reading, each of which was performed in duplicate, and the results expressed in mean fluorescence intensity (MFI) after subtraction of negative control-labelled cell fluorescence.
The above in vitro assay (Biological Example 2) for analysing the effect of MIF antagonists on IL-1 induced COX-2 expression was performed using 2-(2-hydroxyethoxy)-2-(4′-hydroxy-3′-methylphenyl)-1,3-dioxolane (Compound 1) (50 μM), dexamethasone (1 nM) or a combination of dexamethasone (1 nM) and Compound 1 (50 μM). COX-2 expression was expressed as the mean fluorescence intensity (MFI) as measured by flow cytometry, after deduction of the MFI for control-labelled samples, as described by Sampey et al. ^(18).

- melting point: 107 °C
SMILES: Brc1ccc(C2NCCS2)cc1 (stereo not shown) [Compound 4, 2-(4-Bromophenyl)-1,3-thiazolane]
- inhibition at 100 µM [1]: 22 ± 1%

- melting point: 94 to 95 °C
SMILES: COc1ccc(C2NCCS2)cc1 (stereo not shown) [Compound 5, 2-(4-Methoxyphenyl)-1,3-thiazolane]
- inhibition at 100 µM [1]: 22 ± 2%

- melting point: 158 to 161 °C
SMILES: COc1cc(C2NCCS2)ccc1O (stereo not shown) [Compound 7, 2-(4-Hydroxy-3-methoxyphenyl)-1,3-thiazolane]
- inhibition at 100 µM [1]: 15 ± 1%
- Mean cpm (3H-thymidine incorporation) [2]: 1281 cpm

- melting point: 54 to 56 °C
SMILES: COc1ccc(C2NCCS2)cc1OC (stereo not shown) [Compound 8, 2-(3,4-Dimethoxyphenyl)-1,3-thiazolane]
- Mean cpm (3H-thymidine incorporation) [2]: 1238 cpm

SMILES: COc1ccc(-c2cnn(CCC(C)C)c2)cc1 [Compound 12, 4-(4-Methoxyphenyl)-1-(3-methylbutyl)-1H-pyrazole]
- effect on serum IL-1 [3]: inhibitory effect
- IL-1 (pg/ml), serum [3]: 286 ± 102 pg/mL
- effect on serum IL-6 [3]: inhibitory effect
- effect on serum TNF [3]: inhibitory effect
- IL-6 (ng/ml), serum [3]: 80 ± 16 ng/mL
- TNF (pg/ml), serum [3]: 1636 ± 468 pg/mL
- inhibition at 100 µM [1]: 78 ± 9%

SMILES: Cc1ccc(-c2cnn(CCC(C)C)c2)cc1 [Compound 13, 1-(3-Methylbutyl)-4-(4-methylphenyl)-1H-pyrazole]
- effect on serum IL-1 [3]: inhibitory effect
- IL-1 (pg/ml), serum [3]: 305 ± 51 pg/mL
- effect on serum IL-6 [3]: inhibitory effect
- effect on serum TNF [3]: inhibitory effect
- IL-6 (ng/ml), serum [3]: 92 ± 7 ng/mL
- TNF (pg/ml), serum [3]: 1067 ± 191 pg/mL
- inhibition of LPS-IFN—induced nitrite production ([1]; 0.5-100 μM, FIG. 8): dose-responsive inhibition
- inhibition at 100 µM [1]: 91 ± 8%
- Mean cpm (3H-thymidine incorporation) [2]: 1015 cpm

SMILES: c1csc(-c2ccc(C3NCCS3)cc2)c1 (stereo not shown) [Compound 15, 2-[4-(2-Thienyl)phenyl]-1,3-thiazolane]
- inhibition at 100 µM [1]: 12 ± 1%
- Mean cpm (3H-thymidine incorporation) [2]: 955.6 cpm

SMILES: CCCCCCC1(c2ccc(C)cc2)SCCS1 [Compound 17, 2-Hexyl-2-(4-methylphenyl)-1,3-dithiolane]
- inhibition of LPS-induced serum IL-6 ([3]; 5 and 15 mg/kg, FIG. 10b): marked inhibition
- inhibition of LPS-induced serum TNF ([3]; 5 and 15 mg/kg, FIG. 10c): marked inhibition
- inhibition of LPS-induced serum IL-1 ([3]; 5 and 15 mg/kg, statistically significant P<0.05, FIG. 10a): marked inhibition
- inhibition at 100 µM [1]: 69 ± 2%
- Mean cpm (3H-thymidine incorporation) [2]: 933.2 cpm

SMILES: Cc1ccc(C2(C)SCCS2)cc1 [Compound 18, 2-Methyl-2-(4-methylphenyl)-1,3-dithiolane]
- inhibition at 100 µM [1]: 40 ± 1%
- significant inhibition of MIF-induced proliferation ([2]; 10 μM, P<0.05, FIG. 9): significant inhibition

SMILES: CC1(c2ccc(Cl)cc2)SCCS1 [Compound 24, 2-(4-Chlorophenyl)-2-methyl-1,3-dithiolane]
- inhibition at 33 µM [1]: 21 ± 2%
- Mean cpm (3H-thymidine incorporation) [2]: 1318 cpm

SMILES: CC1(c2ccc([N+](=O)[O-])cc2)OCCO1 [Compound 25, 2-(4-Nitrophenyl)-2-methyl-1,3-dioxolane]
- inhibition at 33 µM [1]: 7 ± 1%
- Mean cpm (3H-thymidine incorporation) [2]: 1117 cpm

SMILES: COc1cc(C2OCCS2)ccc1O (stereo not shown) [Compound 29, 2-Methoxy-4-(1,3-oxathiolan-2-yl)phenol]
- inhibition at 100 µM [1]: 9 ± 1%
- Mean cpm (3H-thymidine incorporation) [2]: 1157 cpm

SMILES: CC1CSC(c2ccc(C#N)cc2)O1 (stereo not shown) [Compound 32, 4-(5-Methyl-1,3-oxathiolan-2-yl)benzonitrile]
- inhibition at 100 µM [1]: 14 ± 4%
- Mean cpm (3H-thymidine incorporation) [2]: 1196 cpm

SMILES: c1csc(-c2ccc(C3OCCS3)cc2)c1 (stereo not shown) [Compound 33, 2-(4-Thien-2-ylphenyl)-1,3-oxathiolane]
- effect on serum IL-1 [3]: inhibitory effect
- IL-1 (pg/ml), serum [3]: 360 ± 72 pg/mL
- effect on serum IL-6 [3]: inhibitory effect
- effect on serum TNF [3]: inhibitory effect
- IL-6 (ng/ml), serum [3]: 95 ± 14 ng/mL
- TNF (pg/ml), serum [3]: 1152 ± 317 pg/mL
- inhibition at 100 µM [1]: 47 ± 4%

SMILES: COc1ccc(-c2ccc(OC(F)(F)F)cc2)cc1 [Compound 36, 4-Methoxy-4′-(trifluoromethoxy)-1,1′-biphenyl]
- inhibition at 100 µM [1]: 57 ± 1%
- Mean cpm (3H-thymidine incorporation) [2]: 1033 cpm

SMILES: COc1ccc(-c2ccc(C(F)(F)F)cc2)c(OC)n1 [Compound 37, 2,6-Dimethoxy-3-[4-(trifluoromethyl)phenyl]pyridine]
- inhibition at 100 µM [1]: 24 ± 1%
- Mean cpm (3H-thymidine incorporation) [2]: 1045 cpm

SMILES: N#Cc1ccc(C2OCCO2)cc1 [Compound 40, 4-(1,3-Dioxolan-2-yl)benzenecarbonitrile]
- inhibition at 100 µM [1]: 7 ± 2%
- Mean cpm (3H-thymidine incorporation) [2]: 1143 cpm

SMILES: CCC1(CC)COC(c2ccc(F)c(C#N)c2)OC1 [Compound 43, 5-(5,5-Diethyl-1,3-dioxan-2-yl)-2-fluorobenzenecarbonitrile]
- inhibition at 100 µM [1]: 34 ± 1%
- Mean cpm (3H-thymidine incorporation) [2]: 1106 cpm

SMILES: C[C@@H]1C[C@H]2[C@@H]3CCC4=CC(=O)C=C[C@]4(C)[C@@]3(F)[C@@H](O)C[C@]2(C)[C@@]1(O)C(=O)CO [DEX, dexamethasone, reference compound]
- Mean COX-2 expression (MFI) [4]: 15.13 MFI
